Laboratory results reported in US20240366649A1, “4-ETHYNYL-3-HYDROXY-TETRAHYDROFURANYL-ADENINE PHOSPHORAMIDATES AND RELATED COMPOUNDS AND THEIR USE IN TREATING MEDICAL CONDITIONS” (ROME THERAPEUTICS, INC., priority 2021, published 2024).

How the values were obtained:
[1] = test system: Esophageal cancer TE-1 cells; test: Cancer cell viability assay with 3D cell colonies (CellTiter-Glo), TE-1; format: cell-based; conditions: Homo sapiens, 168 h; TE-1, 3D methylcellulose colonies, 7 days
Method: (§1) Cancer cell lines were cultured in the following media: • Ovarian cancer OVCAR-8 cells—RPMI media containing 10% FBS • Ovarian cancer SK-OV-3 cells—McCoy's 5a media containing 10% FBS • Ovarian cancer SW756 cells—L-15 (100% air)+10% FBS • Esophageal cancer TE-1 cells—RPMI-1640+10% FBS • Esophageal cancer KYSE-410 cells—RPMI-1640+5˜10% FBS • Esophageal cancer KYSE-70 cells—RPMI-1640+10% h.i.FBS. • Pharyngeal cancer FaDu cells—MEM+0.01 mM NEAA+10% FBS
(§2) Cell colony formation was tested using a 3D methylcellulose-based CellTiter-Glo (CTG) viability assay (Cat. No: G7573, Promega). Briefly, cells were inoculated into 96-well plates (at 1,500 cells per well) into a solution of 0.65% methylcellulose in growth media and incubated overnight at 37° C. in 5% CO2. The next day, serially diluted test compound (islatravir, 4′-ethynyl-2-fluoro-2′-deoxyadenosine) or positive control (cisplatin, Cat. No. 6J015A89, Qilu Pharma) were added at the indicated concentrations, and the cells were incubated for 7 days. On day seven, 100 μL of CTG reagent was added, and the plates were incubated at room temperature for 20 min. Luminescence was read on an Envision Multi Label Reader according to manufacturer's instructions. IC50 values were determined using the following calculation: […]

[2] = test system: Esophageal cancer KYSE-410 cells; test: Cancer cell viability assay with 3D cell colonies (CellTiter-Glo), KYSE-410; format: cell-based; conditions: Homo sapiens, 168 h; KYSE-410, 3D methylcellulose colonies, 7 days
Method: as §1, §2

[3] = test system: interferon-stimulated gene (ISG) expression; test: In vivo decitabine challenge model; parameters: species or system C57BL/6 mice; conditions: mice; decitabine i.p. 5 mg/kg and islatravir p.o. 0.6-6.0 mg/kg once a day Day 0 to Day 4; IFIT2 v. GAPDH
Method: Twenty 9-11 week old C57BL/6 mice were acclimated to the lab for at least 5 days. Islatravir (4′-ethynyl-2-fluoro-2′-deoxyadenosine) was prepared in a 0.5% methylcellulose solution for p.o. administration. Decitabine (Sigma) was dissolved in sterile PBS (pH 7.4) and dosed within 30 minutes of preparation of the solution. Doses of both islatravir and decitabine were administered once a day, every day from Day 0 to Day 4.
On Day 0, mice were split into four groups of five mice and given their first dose of decitabine (i.p., 5 mg/kg) and […]. Dosing groups were:
Decitabine and islatravir were administered daily from Day 0 to Day 4. All mice were euthanized 1 hour after the last dose administration on Day 4. Spleens, liver, and terminal colon were collected, along with plasma from each animal. The fold changes in interferon-stimulated gene (ISG) expression was calculated by first normalizing to GAPDH gene using the Delta CT method. The CT (gene of interest)−CT (reference gene) was calculated to generate a delta CT for all samples. The fold change was then calculated by taking the […](Delta CT(control)−Delta CT (experimental). The control in this example was the PBS control animal group. The Taqman duplex assay (Thermo Fisher 4331182 and 4448489) was used according to the manufacturer's instructions to determine levels of GAPDH v. IFIT2.

[4] = test system: IFN-β production in PBMCs; test: Decitabine-stimulated human PBMC assay; format: cell-based; conditions: anti-CD3/anti-CD28, 10 μM decitabine, 5 days
Method: EasySep buffer (32 mL, Stem Cell, cat. #20144) was used to dilute 8 mL of LRSC buffy coat (from fresh Leukopak) with gentle mixing. The diluted buffy coat (20 mL) was transferred into each of two SepMate 50 tubes, and the tubes were filled with 15 mL of Lyphoprep (Stem Cell, ct. #07851) density gradient. The SepMate tubes were then centrifuged at 1200G for 10 minutes at room temperature with the brake on. The top layer of supernatant was collected in SepMate tubes by quickly pouring it into a new 50 mL conical tube. The PBMCs were washed with EasySep buffer ×2 by centrifuging at 300G for 5 minutes. The cells were resuspended in 30 mL of EasySep and centrifuged at 100G for 5 minutes with the brake off, and the platelets were removed. The cells were then resuspended in 6 mL of 1×RBC lysis buffer (InvitroGen) and incubated at 37° C. for 5 minutes. Then, 25 mL of EasySep buffer was mixed into the tube and it was centrifuged at 300G for 5 minutes. The cells were resuspended in 10 mL of EasySep buffer and the cells were then counted with Cellometer (AO/PI). The PBMCs were resuspended in RPMI1640 (ThermoFisher)+10% FBS (HyClone)+p/s at 3×10^6/mL. The PBMCs (100 μL, 300 k PBMCs) were then seeded in a 96-well flat bottom microplate (Corning) that had been precoated with 100 μL of anti-CD3 antibody (10 μg/mL in PBS, Biolegend) or PBS at 4° C., one day before the assay was commenced. […]

C#C[C@]1(CO)O[C@@H](n2cnc3c(N)nc(F)nc32)C[C@@H]1O [islatravir, 4′-ethynyl-2-fluoro-2′-deoxyadenosine]
IC50 [1]: ≤ 10 µM
IC50 [2]: > 30 µM
interferon-stimulated gene (ISG) response [3]: showed the change in ISG response
production of IFN-β [4]: activated production of IFN-β
